Values after ≈ are worked out from the molar mass of the structure shown. Active and inactive are the calls of the source. No cut-off for these calls is given here.
Legend:
[1] = tested on: Human immunodeficiency virus; experiment: Antiviral activity against HIV; format: functional, organism-based
[2] = tested on: Human immunodeficiency virus; experiment: Antiviral activity against HIV assessed as protection against viral infection by XTT-tetrazolium method; format: functional

For `CC(C)=CCCC1(C)C=Cc2c(c(C)cc3c2[nH]c2ccccc23)O1` (stereo not given), the Activity [1] was “inactive”.

For `CC(C)=CCC/C(C)=C/Cc1c(O)c(C)cc2c1[nH]c1ccccc12` [MAHANIMBILOL], the EC50 ([1]; Human immunodeficiency virus 1) was 8.6 µg/mL (≈ 25.8 µM) and the IC50 ([1]; Human immunodeficiency virus 1) was 23 µg/mL (≈ 69 µM).

`CC(C)=CCc1cc2c(cc1O)[nH]c1ccc(C)cc12` [SIAMENOL] was tested, and the EC50 ([1]; Human immunodeficiency virus 1) was 2.6 µg/mL (≈ 9.8 µM) and the Activity [2] was 50%.

From ChEMBL document CHEMBL1154556, “Siamenol, a new carbazole alkaloid from Murraya siamensis” (J Nat Prod, 2000)
